Reference: patent US20220175637A1, “COMPOSITION COTAINING ULTRAVIOLET WAVELENGTH-CONVERTING SUBSTANCE AND HYDROPHOBIZED SILICA AND/OR HYDROPHOBIZED STARCH” (Shiseido Company, Ltd., priority 2019, published 2022)

Assays:
[1] = tested on: Human dermal fibroblasts; test: Cell activity (AlamarBlue) of cells irradiated with UV through a solution of the UV wavelength conversion substance; type: cell-based; settings: UV 0 to 100 mJ/cm^2, FIG. 3
Method: The UV wavelength conversion substances (3) and (4) were dispersed in alcohol to prepare 5% and 10% dispersions.
(§1) 1. Human dermal fibroblasts and human skin keratinocytes purchased from Kurabo Industries Ltd. were used. A cell suspension (1 mL) stored in liquid nitrogen was thawed in a water bath (37° C.) to an extent that small ice pellets remained, and then diluted with 9 mL of warm medium. 2. The diluted suspension was mixed gently and then transferred to a T75 flask and incubated overnight at 37° C. 3. The next day, the medium was replaced with 10 mL of fresh medium. 4. The medium was replaced periodically (once every 2 days for fibroblasts and once every 2 to 3 days for keratinocytes) and cell proliferation was continued. Meanwhile, the cells were observed using a microscope, and it was confirmed that the cells grew in the correct form. 5. After the cells reached about 80% confluence, the cells were passaged. The cells were passaged by washing the cells once with 10 mL of warm PBS, adding 5 mL of warm trypsin to a T75 flask, covering the bottom of the flask with a trypsin solution, followed by aspirating at room temperature for 1 minute. 6. The flask was allowed to stand in an oven at 37° C. for (maximum) 2 minutes for fibroblasts and (maximum) 7 minutes for keratinocytes. The cells were observed using a microscope and confirmed to be small and oval. 7. […]

[2] = tested on: Human dermal fibroblasts; test: Restoration of cell activity decreased by UV irradiation (AlamarBlue); type: cell-based; settings: FIG. 5
Method: as §1, with “7. Thereafter, the side of the T75 flask was lightly tapped to release the cells.” for “7.”

For C-phycocyanin, the “cell activity at UV irradiation (relative fluorescence intensity)” value ([1]; 0.4% C-phycocyanin solution) was “the decrease in cell activity was suppressed”, the “cell activity at UV irradiation (relative fluorescence intensity)” value ([1]; 2% C-phycocyanin solution, compared to no UV irradiation) was “the cell activity was even increased” and the “cell activity recovery effect, comparison of concentrations” value ([2]; 0.4% versus 2% solution) was “equivalent at concentrations of 0.4% and 2%”. For the same substance, the “cell activity of cells having activity temporarily reduced (relative fluorescence intensity)” value ([2]; pre-irradiation 400 mJ/cm^2 without substance, then UV 0 to 200 mJ/cm^2 through 0.4% or 2% solution) was “cell activity was recovered”.
